{"source": "patent US20050004018A1", "about": "“Use of antitumoral compound in cancer therapy” (priority 2001, published 2005)", "key": {"cynomolgus monkeys": {"system": "cynomolgus monkeys", "conditions": "cited from earlier work"}, "cancer patients [1]": {"system": "cancer patients", "conditions": "cited from earlier work"}, "mice": {"system": "mice", "conditions": "single or fractionated dose, intravenous; cited from earlier work"}, "[2]": {"system": "soft tissue sarcoma cell lines", "conditions": "several soft tissue sarcoma cell lines; cited from earlier work"}, "cancer patients [3]": {"system": "cancer patients", "test": "phase I clinical trial, 3 hours iv infusion weekly for 3 consecutive weeks every 4 weeks", "format": "in vivo, human", "protocol": "A phase I clinical trial was carried out with the following protocol:\nDose schedule: ET-743 will be administered every week as a 3hours iv infusion for 3 consecutive weeks every 4 weeks.\nStarting dose and dose escalation: The starting dose will be 300 μg/m^2 weekly of ET-743 given as a intravenous infusion over 3 hours for 3 consecutive weeks every 4 weeks. Patients will be sequentially enrolled into the following dose cohorts beginning at dose Level 1. A minimum cohort size of 3 patients will be treated at each of the dose levels.\nAccrual at the next higher dose level: At least 1 patient at each dose level must have completed 1 cycle of therapy and two patients must have completed treatment on day 15 before a new patient can be treated at the next highest dose. Conditions for retreatment: Patients are eligible for retreatment […] intolerable toxicity, the patient desires further treatment, and fulfill the eligibility criteria. Dose Limiting Toxicities (DLTs)\nDose limiting toxicities (DLT) will be defined as follows: • ANC <500/μL for longer than 5 days. • ANC <500/μL accompanied by fever (at least 100.5° F.). • Platelets <25,000/μL. • Any grade 3-4 nonhematological toxicity except nausea/vomiting (provided the patient is receiving an optimal antiemetic regimen consisting of dexamethasone and a serotonin antagonist on an optimal dose-schedule for prophylaxis and management), alopecia. Grade 3 or 4 elevation in trasaminases that result in either omission of 2 scheduled treatments within a cycle or delay in the initiation of a subsequent course exceeding 2 weeks. • Missing at least 2 scheduled treatments during a single course due to drug-induced toxicity (missed doses will not be made up). • Delay in the initiation of a subsequent course of treatment exceeding 2 weeks. Determination of the Maximum Tolerated Dose (MTD)\nCohort of 3 patients will be treated at each dose level. If no DLT is seen during the first cycle in the cohort of patients at any given dose level, new patients may be treated at the next higher level.\nIf any patient encounters drug-induced DLT during either cycle 1 or 2, a maximum of 6 patients may be treated at that level. If DLT is not observed in the additional patients, new patients may be treated at the next higher dose level.\nIf at least 2 patients experience DLT at any given dose level, this dose level will be considered the Maximum Tolerated Dose (MTD). However, it is possible that additional patients may experience DLT due to the timing of patient enrollment into that dose level.\nOnce an MTD level is established, subsequent patients should be treated at the next lower dose level. Intermediate doses may be used in some instances and flexibility is an integral part of the protocol. If two or more patients experience DLT at the lower dose level, then the MTD has again been established and additional patients will be treated at the next lower dose (unless sufficient numbers of patients have already been treated at that dose level).\nThe RD is defined as the highest dose level at which less than 2 of 6 patients experience DLT during cycles 1 or 2. At the RD, sufficient numbers of patients will be accrued so at least 6 patients receive at least 2 cycles of therapy, and at least 4 patients receive at least 4 courses of treatment.\nThis trial was launched in May 00 and last patient was included in March 02. 31 patients were treated.\nTumours included: Sarcomas (19), UOT (1), Lung (1), Ovary (4), Breast (2), Uterus (1), Melanoma (2), Colorectal (1)"}, "[4]": {"conditions": "3 hour weekly ×3/4 weeks infusion, per patient, number (%)"}}, "note": "Where two headings read alike, the source gives them in different places.", "data": [{"substance": "ecteinascidin 743 [ET-743]", "values": [{"measurement": "toxicity", "setting": "cynomolgus monkeys; fractionated dosing", "result": "only minor toxicity"}, {"measurement": "toxicity", "setting": "cynomolgus monkeys; single doses", "result": "hepatic and hematological toxicity, emesis and diarrhoea"}, {"measurement": "DLT (dose limiting toxicity)", "setting": "cancer patients [1]; 24hr infusion every 3 weeks", "result": "hematotoxicity"}, {"measurement": "MTD (maximum tolerated dose)", "setting": "cancer patients [1]; 24hr infusion every 3 weeks", "result": 1800, "unit": "μg/m^2"}, {"measurement": "RD (recommended dose)", "setting": "cancer patients [1]; 24hr infusion every 3 weeks", "result": 1500, "unit": "μg/m^2"}, {"measurement": "Grade 2 or greater hyperbilirubinemia", "setting": "cancer patients [1]; % of treatment courses at the RD", "result": 30, "unit": "%"}, {"measurement": "Grade 3 or 4 transaminases, cycles", "setting": "cancer patients [1]; at the RD, % of cycles", "result": 38, "unit": "%"}, {"measurement": "Grade 3 or 4 transaminases, patients", "setting": "cancer patients [1]; at the RD, % of patients", "result": 68, "unit": "%"}, {"measurement": "toxicity", "setting": "mice", "result": "reversible hematological and hepatic toxicity"}, {"measurement": "IC50", "setting": "[2]", "result": "< 1", "unit": "pM"}, {"measurement": "G3 transaminases", "setting": "cancer patients [3]; 29 patients evaluated", "result": 10, "unit": "%"}, {"measurement": "ALT G2(%)", "setting": "cancer patients [3]; [4]", "result": "9(31) %"}, {"measurement": "ALT G3(%)", "setting": "cancer patients [3]; [4]", "result": "3(10.3) %"}, {"measurement": "ALT G4(%)", "setting": "cancer patients [3]; [4]", "result": 0, "unit": "%"}, {"measurement": "Alk Phos G2(%)", "setting": "cancer patients [3]; [4]", "result": "1(3.4) %"}, {"measurement": "Alk Phos G3(%)", "setting": "cancer patients [3]; [4]", "result": "2(6.9) %"}, {"measurement": "Alk Phos G4(%)", "setting": "cancer patients [3]; [4]", "result": 0, "unit": "%"}, {"measurement": "Bilirubin G2(%)", "setting": "cancer patients [3]; [4]", "result": 0, "unit": "%"}, {"measurement": "Bilirubin G3(%)", "setting": "cancer patients [3]; [4]", "result": "1(3.4) %"}, {"measurement": "Bilirubin G4(%)", "setting": "cancer patients [3]; [4]", "result": 0, "unit": "%"}, {"measurement": "Creatine Kinase G2(%)", "setting": "cancer patients [3]; [4]", "result": "1(3.4) %"}, {"measurement": "Creatine Kinase G3(%)", "setting": "cancer patients [3]; [4]", "result": 0, "unit": "%"}, {"measurement": "Creatine Kinase G4(%)", "setting": "cancer patients [3]; [4]", "result": "1(3.4) %"}, {"measurement": "Creatinine G2(%)", "setting": "cancer patients [3]; [4]", "result": "1(3.4) %"}, {"measurement": "Creatinine G3(%)", "setting": "cancer patients [3]; [4]", "result": 0, "unit": "%"}, {"measurement": "Creatinine G4(%)", "setting": "cancer patients [3]; [4]", "result": 0, "unit": "%"}, {"measurement": "Hemoglobin G2(%)", "setting": "cancer patients [3]; [4]", "result": "9(31) %"}, {"measurement": "Hemoglobin G3(%)", "setting": "cancer patients [3]; [4]", "result": "1(3.4) %"}, {"measurement": "Hemoglobin G4(%)", "setting": "cancer patients [3]; [4]", "result": 0, "unit": "%"}, {"measurement": "Neutrophils G2(%)", "setting": "cancer patients [3]; [4]", "result": "1(3.4) %"}, {"measurement": "Neutrophils G3(%)", "setting": "cancer patients [3]; [4]", "result": "2(6.9) %"}, {"measurement": "Neutrophils G4(%)", "setting": "cancer patients [3]; [4]", "result": "1(3.4) %"}, {"measurement": "Platelets G2(%)", "setting": "cancer patients [3]; [4]", "result": "1(3.4) %"}, {"measurement": "Platelets G3(%)", "setting": "cancer patients [3]; [4]", "result": 0, "unit": "%"}, {"measurement": "Platelets G4(%)", "setting": "cancer patients [3]; [4]", "result": 0, "unit": "%"}, {"measurement": "Grade 3-4 ALT", "setting": "cancer patients [3]; Weekly schedule", "result": 10.3, "unit": "%"}, {"measurement": "Grade 3-4 Bilirubin", "setting": "cancer patients [3]; Weekly schedule", "result": 3.4, "unit": "%"}, {"measurement": "Grade 3-4 Creatinine", "setting": "cancer patients [3]; Weekly schedule", "result": 0, "unit": "%"}, {"measurement": "Grade 3-4 Creatinine Kinase", "setting": "cancer patients [3]; Weekly schedule", "result": 3.4, "unit": "%"}, {"measurement": "Grade 3-4 Hemoglobin", "setting": "cancer patients [3]; Weekly schedule", "result": 3.4, "unit": "%"}, {"measurement": "Grade 3-4 Neutrophils", "setting": "cancer patients [3]; Weekly schedule", "result": 10.3, "unit": "%"}, {"measurement": "Grade 3-4 Platelets", "setting": "cancer patients [3]; Weekly schedule", "result": 0, "unit": "%"}, {"measurement": "Serious renal toxicity (G3-4)", "setting": "cancer patients [3]; Weekly schedule", "result": "has not been seen"}, {"measurement": "DLT defining the MTD", "setting": "cancer patients [3]; at the 4th level (650)", "result": "Long lasting grade 3 neutropenia, and g3 Bilirubin toxicity"}, {"measurement": "long lasting stabilizations", "setting": "cancer patients [3]; ovarian cancer", "result": 2}, {"measurement": "minor responses", "setting": "cancer patients [3]; patients with sarcoma", "result": 2}, {"measurement": "grade 3-4 neutropenia", "setting": "cancer patients [3]; per patient, 29 patients evaluated", "result": 10.3, "unit": "%"}, {"measurement": "long lasting stabilizations", "setting": "cancer patients [3]; sarcoma", "result": 2}, {"measurement": "reduction of the most frequent toxicities", "setting": "cancer patients [3]; weekly schedule vs previous schedules", "result": "more than 3 times"}, {"measurement": "MTD", "setting": "cancer patients [3]; weekly×3/4 weeks, 3 hour infusion", "result": 650, "unit": "mcg/sm"}, {"measurement": "recommended dose", "setting": "cancer patients [3]; ×3 every 4 weeks, 3 hour infusion", "result": 580, "unit": "mcg/sm"}]}]}
